Experimental data taken from ChEMBL document CHEMBL3885881, “DrugMatrix”.

Species: Rattus norvegicus
Assay: DrugMatrix - Regimen: Daily Repeat
Assay type: toxicity, organism-based, Sprague-Dawley
Design: regimen Daily Repeat, gender Male, age 6-8 weeks
Details: in vivo, iv, vehicle 100 % SALINE; for ABSOLUTE BASOPHIL / ABSOLUTE EOSINOPHIL / ABSOLUTE LYMPHOCYTE / ABSOLUTE MONOCYTE / ABSOLUTE SEGMENTED NEUTROPHIL / BASOPHIL / EOSINOPHIL / ERYTHROCYTE COUNT / HEMATOCRIT / HEMOGLOBIN / LEUKOCYTE COUNT / LYMPHOCYTE / MEAN CORPUSCULAR HEMOGLOBIN / MEAN CORPUSCULAR HEMOGLOBIN CONCENTRATION / MEAN CORPUSCULAR VOLUME / MONOCYTE / NEUTROPHIL / NUCLEATED RED BLOOD CELLS / PLATELET COUNT: tissue Blood; for ALANINE AMINOTRANSFERASE / ALBUMIN / ALKALINE PHOSPHATASE / ASPARTATE AMINOTRANSFERASE / BLOOD UREA NITROGEN / CARBON DIOXIDE / CHLORIDE / CHOLESTEROL / CREATINE PHOSPHOKINASE / CREATININE / GLUCOSE / LACTATE DEHYDROGENASE / LIPASE / PHOSPHORUS / POTASSIUM / SODIUM / TOTAL BILIRUBIN / TOTAL PROTEIN / URIC ACID: tissue Plasma
[1] = 11 mg/kg, 72 h, dose level High, time 3 day
[2] = 11 mg/kg, 120 h, dose level High, time 5 day
[3] = […], 72 h, dose 2.6 mg/Kg, dose level Low, time 3 day
[4] = […], 120 h, dose 2.6 mg/Kg, dose level Low, time 5 day

SMILES: Nc1ccn([C@@H]2O[C@H](CO)[C@@H](O)C2(F)F)c(=O)n1 [GEMCITABINE]
- ABSOLUTE BASOPHIL [1]: 0 CELLS/uL
- ABSOLUTE EOSINOPHIL [1]: 0 CELLS/uL
- ABSOLUTE LYMPHOCYTE [1]: 4311.33 CELLS/uL
- ABSOLUTE MONOCYTE [1]: 21.67 CELLS/uL
- ABSOLUTE SEGMENTED NEUTROPHIL [1]: 200.33 CELLS/uL
- BASOPHIL [1]: 0%
- EOSINOPHIL [1]: 0%
- ERYTHROCYTE COUNT [1]: 5.19 x10E6/uL
- HEMATOCRIT [1]: 33.27%
- HEMOGLOBIN [1]: 13.03 G/DL
- LEUKOCYTE COUNT [1]: 4.53 x10E3/uL
- LYMPHOCYTE [1]: 95%
- MEAN CORPUSCULAR HEMOGLOBIN [1]: 25.07 pg
- MEAN CORPUSCULAR HEMOGLOBIN CONCENTRATION [1]: 39.2 G/DL
- MEAN CORPUSCULAR VOLUME [1]: 63.93 fL
- MONOCYTE [1]: 0.33%
- NEUTROPHIL [1]: 4.67%
- NUCLEATED RED BLOOD CELLS [1]: 0 /100WBC
- PLATELET COUNT [1]: 706.67 x10E3/uL
- ALANINE AMINOTRANSFERASE [1]: 46.67 u/L
- ALBUMIN [1]: 3.5 G/DL
- ALKALINE PHOSPHATASE [1]: 373 u/L
- ASPARTATE AMINOTRANSFERASE [1]: 100.67 u/L
- BLOOD UREA NITROGEN [1]: 15.67 mg/dL
- CARBON DIOXIDE [1]: 24.33 mmol/L
- CHLORIDE [1]: 107.33 MEQ/L
- CHOLESTEROL [1]: 63.33 mg/dL
- CREATINE PHOSPHOKINASE [1]: 316.67 u/L
- CREATININE [1]: 0.13 mg/dL
- GLUCOSE [1]: 143 mg/dL
- LACTATE DEHYDROGENASE [1]: 80.33 u/L
- LIPASE [1]: 8 u/L
- PHOSPHORUS [1]: 9.73 mg/dL
- POTASSIUM [1]: 5.2 MEQ/L
- SODIUM [1]: 145.57 MEQ/L
- TOTAL BILIRUBIN [1]: 0.17 mg/dL
- TOTAL PROTEIN [1]: 4.97 G/DL
- URIC ACID [1]: 1.3 mg/dL
- ABSOLUTE BASOPHIL [2]: 0 CELLS/uL
- ABSOLUTE EOSINOPHIL [2]: 12.67 CELLS/uL
- ABSOLUTE LYMPHOCYTE [2]: 2696.33 CELLS/uL
- ABSOLUTE MONOCYTE [2]: 10 CELLS/uL
- ABSOLUTE SEGMENTED NEUTROPHIL [2]: 47.67 CELLS/uL
- BASOPHIL [2]: 0%
- EOSINOPHIL [2]: 0.33%
- ERYTHROCYTE COUNT [2]: 8.1 x10E6/uL
- HEMATOCRIT [2]: 50%
- HEMOGLOBIN [2]: 19.4 G/DL
- LEUKOCYTE COUNT [2]: 2.77 x10E3/uL
- LYMPHOCYTE [2]: 97.67%
- MEAN CORPUSCULAR HEMOGLOBIN [2]: 24 pg
- MEAN CORPUSCULAR HEMOGLOBIN CONCENTRATION [2]: 38.9 G/DL
- MEAN CORPUSCULAR VOLUME [2]: 61.67 fL
- MONOCYTE [2]: 0.33%
- NEUTROPHIL [2]: 1.67%
- NUCLEATED RED BLOOD CELLS [2]: 0.33 /100WBC
- PLATELET COUNT [2]: 374.33 x10E3/uL
- ALANINE AMINOTRANSFERASE [2]: 34.67 u/L
- ALBUMIN [2]: 3.5 G/DL
- ALKALINE PHOSPHATASE [2]: 152.67 u/L
- ASPARTATE AMINOTRANSFERASE [2]: 232 u/L
- BLOOD UREA NITROGEN [2]: 36.67 mg/dL
- CARBON DIOXIDE [2]: 26.33 mmol/L
- CHLORIDE [2]: 107 MEQ/L
- CHOLESTEROL [2]: 104.67 mg/dL
- CREATINE PHOSPHOKINASE [2]: 2721.33 u/L
- CREATININE [2]: 0.23 mg/dL
- GLUCOSE [2]: 286.33 mg/dL
- LACTATE DEHYDROGENASE [2]: 384.67 u/L
- LIPASE [2]: 10.33 u/L
- PHOSPHORUS [2]: 10.93 mg/dL
- POTASSIUM [2]: 4.87 MEQ/L
- SODIUM [2]: 146.9 MEQ/L
- TOTAL BILIRUBIN [2]: 0.1 mg/dL
- TOTAL PROTEIN [2]: 6.03 G/DL
- URIC ACID [2]: 1.6 mg/dL
- ABSOLUTE BASOPHIL [3]: 0 CELLS/uL
- ABSOLUTE EOSINOPHIL [3]: 0 CELLS/uL
- ABSOLUTE LYMPHOCYTE [3]: 7048.67 CELLS/uL
- ABSOLUTE MONOCYTE [3]: 0 CELLS/uL
- ABSOLUTE SEGMENTED NEUTROPHIL [3]: 484.67 CELLS/uL
- BASOPHIL [3]: 0%
- EOSINOPHIL [3]: 0%
- ERYTHROCYTE COUNT [3]: 5.03 x10E6/uL
- HEMATOCRIT [3]: 31.87%
- HEMOGLOBIN [3]: 12.73 G/DL
- LEUKOCYTE COUNT [3]: 7.53 x10E3/uL
- LYMPHOCYTE [3]: 93.67%
- MEAN CORPUSCULAR HEMOGLOBIN [3]: 25.37 pg
- MEAN CORPUSCULAR HEMOGLOBIN CONCENTRATION [3]: 39.97 G/DL
- MEAN CORPUSCULAR VOLUME [3]: 63.43 fL
- MONOCYTE [3]: 0%
- NEUTROPHIL [3]: 6.33%
- NUCLEATED RED BLOOD CELLS [3]: 0 /100WBC
- PLATELET COUNT [3]: 1190.67 x10E3/uL
- ALANINE AMINOTRANSFERASE [3]: 55.33 u/L
- ALBUMIN [3]: 4.03 G/DL
- ALKALINE PHOSPHATASE [3]: 332.67 u/L
- ASPARTATE AMINOTRANSFERASE [3]: 110 u/L
- BLOOD UREA NITROGEN [3]: 16.67 mg/dL
- CARBON DIOXIDE [3]: 25 mmol/L
- CHLORIDE [3]: 97.67 MEQ/L
- CHOLESTEROL [3]: 76.67 mg/dL
- CREATINE PHOSPHOKINASE [3]: 485.33 u/L
- CREATININE [3]: 0.14 mg/dL
- GLUCOSE [3]: 175.33 mg/dL
- LACTATE DEHYDROGENASE [3]: 141.67 u/L
- LIPASE [3]: 9 u/L
- PHOSPHORUS [3]: 12.07 mg/dL
- POTASSIUM [3]: 6.4 MEQ/L
- SODIUM [3]: 141.6 MEQ/L
- TOTAL BILIRUBIN [3]: 0.2 mg/dL
- TOTAL PROTEIN [3]: 5.93 G/DL
- URIC ACID [3]: 1.5 mg/dL
- ABSOLUTE BASOPHIL [4]: 0 CELLS/uL
- ABSOLUTE EOSINOPHIL [4]: 0 CELLS/uL
- ABSOLUTE LYMPHOCYTE [4]: 4224 CELLS/uL
- ABSOLUTE MONOCYTE [4]: 19 CELLS/uL
- ABSOLUTE SEGMENTED NEUTROPHIL [4]: 23.67 CELLS/uL
- BASOPHIL [4]: 0%
- EOSINOPHIL [4]: 0%
- ERYTHROCYTE COUNT [4]: 5.09 x10E6/uL
- HEMATOCRIT [4]: 32.1%
- HEMOGLOBIN [4]: 12.83 G/DL
- LEUKOCYTE COUNT [4]: 4.27 x10E3/uL
- LYMPHOCYTE [4]: 99%
- MEAN CORPUSCULAR HEMOGLOBIN [4]: 25.2 pg
- MEAN CORPUSCULAR HEMOGLOBIN CONCENTRATION [4]: 39.97 G/DL
- MEAN CORPUSCULAR VOLUME [4]: 63.1 fL
- MONOCYTE [4]: 0.33%
- NEUTROPHIL [4]: 0.67%
- NUCLEATED RED BLOOD CELLS [4]: 0.33 /100WBC
- PLATELET COUNT [4]: 699.67 x10E3/uL
- ALANINE AMINOTRANSFERASE [4]: 46.33 u/L
- ALBUMIN [4]: 4.17 G/DL
- ALKALINE PHOSPHATASE [4]: 368 u/L
- ASPARTATE AMINOTRANSFERASE [4]: 127.67 u/L
- BLOOD UREA NITROGEN [4]: 13.33 mg/dL
- CARBON DIOXIDE [4]: 24.67 mmol/L
- CHLORIDE [4]: 104 MEQ/L
- CHOLESTEROL [4]: 70.67 mg/dL
- CREATINE PHOSPHOKINASE [4]: 350.33 u/L
- CREATININE [4]: 0.12 mg/dL
- GLUCOSE [4]: 151.67 mg/dL
- LACTATE DEHYDROGENASE [4]: 93.33 u/L
- LIPASE [4]: 8 u/L
- PHOSPHORUS [4]: 11.03 mg/dL
- POTASSIUM [4]: 6.21 MEQ/L
- SODIUM [4]: 143.67 MEQ/L
- TOTAL BILIRUBIN [4]: 0.1 mg/dL
- TOTAL PROTEIN [4]: 6.03 G/DL
- URIC ACID [4]: 1.63 mg/dL
